{"source": "patent US20250034522A1", "about": "“METHOD FOR SEPARATING PITUITARY CELLS AND HYPOTHALAMIC CELLS USING CELL SURFACE MARKER” (FUJITA ACADEMY, priority 2021, published 2025)", "format_in_all_cases": "cell-based, human", "key": {"[1]": {"test_system": "CD49c-positive cell aggregates reaggregated after FACS purification from hESC sample", "assay": "ACTH secretion test with CRH receptor inhibitor under standard and low glucose", "details": "3 hours pretreatment, vs 0.1% DMSO, 30 minutes, aggregates cultured 13-15 days", "method": "As a test method, a cell aggregate that was reaggregated after FACS purification from a hESC sample and cultured for 13-15 days was used. Before secretion measurement, cells were pretreated for 3 hours with maintenance medium (gfCDM+20% KSR+[…]) containing antalarmin […] or the same amount of solvent (0.1% DMSO) as a control. Each pretreated cell aggregate was transferred to a 1.5 ml microtube, incubated in 250 μl of standard glucose medium (glucose-free DMEM+5.56 mM D-glucose+4.44 mM D-mannitol) at 37° C. for 30 minutes, and the medium was collected. Subsequently, the aggregate was incubated in 250 μl of low glucose medium (glucose-free DMEM+0.56 mM D-glucose+9.44 mM D-mannitol) at 37° C. for 30 minutes, and then the medium was collected. Antalarmin or DMSO was continuously added to the standard glucose medium and low glucose medium described above. The results of measuring the ACTH concentration in the collected medium using the ECLIA method used in clinical tests are shown. It was confirmed that ACTH secretion increased under low glucose conditions (10 mg/dL) compared to standard glucose conditions (100 mg/dL). […]\n(§1) Cell aggregates that were reaggregated after MACS or FACS purification and cultured for 8 days or more were used. […] ACTH concentration in the collected medium etc., was measured by the ECLIA method used in clinical testing. […]"}, "[2]": {"test_system": "cell aggregates reaggregated after MACS purification from hESC sample (CD49c-positive / CD49c-negative cells)", "assay": "ACTH secretion test (CRH stimulation) on reaggregates after MACS purification", "details": "8 days after reaggregation, 5 aggregates, 1 μg/ml CRH in HBSS, 37° C., 10 minutes, ECLIA", "method": "The test method used cell aggregates that were cultured for 8 days after MACS purification from a sample differentiated from hESC (also referred to as “hESC sample”) and reaggregation. 5 cell aggregates were transferred to a 1.5 ml microtube and incubated in 250 μl of HBSS(+) (Wako, #084-08965) at 37° C. for 10 minutes, and then HBSS was collected. Subsequently, HBSS was collected after incubation at 37° C. for 10 minutes in 250 μl of HBSS containing 1 μg/ml CRH (Peptide Institute, #4136-s). The ACTH concentration in the collected HBSS was measured by the ECLIA method used in clinical testing.\n(§2) Cell aggregates that were reaggregated after MACS or FACS purification and cultured for 8 days or more were used. One or five cell aggregates were incubated at a predetermined temperature and for a predetermined time using a predetermined medium, etc., and then the medium and the like were collected. ACTH concentration in the collected medium etc., was measured by the ECLIA method used in clinical testing. In addition, when confirming the influence of secretion suppressing factors and CRH receptor inhibitors, pretreatment was performed for a predetermined period of time with a maintenance medium containing secretion suppressing factors and CRH receptor inhibitors before secretion measurement."}, "[3]": {"test_system": "CD49c-positive cell aggregates reaggregated after FACS purification from hESC sample", "assay": "ACTH secretion test (CRH stimulation) on reaggregates after FACS purification", "details": "CD49c-positive cells (FACS, hESC sample), cultured 12 days, 1 μg/ml CRH in standard glucose medium, 37° C., 30 minutes, ECLIA", "method": "As a test method, a cell aggregate that was reaggregated after FACS purification from a hESC sample and cultured for 12 days was used. Each cell aggregate was transferred to a 1.5 ml microtube, incubated in 250 μl of standard glucose medium (glucose-free DMEM+5.56 mM D-glucose+4.44 mM D-mannitol) at 37° C. for 30 minutes, and then the medium was collected. Subsequently, the aggregate was incubated in 250 μl of standard glucose medium containing 1 μg/ml CRH (Peptide Institute, #4136-s) at 37° C. for 30 minutes, and then the medium was collected. The ACTH concentration in the collected medium was measured by the ECLIA method used in clinical testing. […] As a test method, a cell aggregate that was reaggregated after FACS purification from a hESC sample and cultured for 13 days was used. Before secretion measurement, cells were pretreated for 3 hours with maintenance medium (gfCDM+20% KSR+2 μM SAG) containing cortisol (Hydrocortisone, […]) or the same amount of solvent (0.1% DMSO) as a control. […] The ACTH concentration in the collected medium was measured by the ECLIA method used in clinical testing.\nas §1"}, "[4]": {"test_system": "cell aggregates reaggregated after FACS purification from hiPSC sample (CD49c-positive / CD49c-negative cells)", "assay": "ACTH secretion test (CRH stimulation) on hiPSC sample reaggregates", "details": "cultured 21 days, 1 μg/ml CRH in standard glucose medium, 37° C., 30 minutes, ECLIA", "method": "As a test method, a cell aggregate that was reaggregated after FACS purification from a hiPSC sample and cultured for 21 days was used. Each cell aggregate was transferred to a 1.5 ml microtube, incubated in 250 μl of standard glucose medium (glucose-free DMEM+5.56 mM D-glucose+4.44 mM D-mannitol) at 37° C. for 30 minutes, and then the medium was collected. Subsequently, the aggregate was incubated in 250 μl of standard glucose medium containing 1 μg/ml CRH (Peptide Institute, #4136-s) at 37° C. for 30 minutes, and then the medium was collected. The ACTH concentration in the collected medium was measured by the ECLIA method used in clinical testing.\nas §2"}, "[5]": {"test_system": "CD49c-positive cell aggregates reaggregated after FACS purification from hESC sample", "assay": "ACTH secretion test with secretion suppressor cortisol", "details": "CD49c-positive cells (FACS, hESC sample), cultured 13 days, 3 hours pretreatment, Hydrocortisone 20 µg/ml vs 0.1% DMSO, standard glucose medium 30 minutes, ECLIA", "method": "As a test method, a cell aggregate that was reaggregated after FACS purification from a hESC sample and cultured for 12 days was used. Each cell aggregate was transferred to a 1.5 ml microtube, incubated in 250 μl of standard glucose medium (glucose-free DMEM+5.56 mM D-glucose+4.44 mM D-mannitol) at 37° C. for 30 minutes, and then the medium was collected. Subsequently, the aggregate was incubated in 250 μl of standard glucose medium containing 1 μg/ml CRH (Peptide Institute, #4136-s) at 37° C. for 30 minutes, and then the medium was collected. The ACTH concentration in the collected medium was measured by the ECLIA method used in clinical testing. […] As a test method, a cell aggregate that was reaggregated after FACS purification from a hESC sample and cultured for 13 days was used. Before secretion measurement, cells were pretreated for 3 hours with maintenance medium (gfCDM+20% KSR+2 μM SAG) containing cortisol (Hydrocortisone, […]) or the same amount of solvent (0.1% DMSO) as a control. […] The ACTH concentration in the collected medium was measured by the ECLIA method used in clinical testing. […] ACTH concentration in the collected medium etc., was measured by the ECLIA method used in clinical testing. […]"}}, "note": "Where no end group is shown, it is not given here.", "data": [{"compound": "CCCCN(CC)c1nc(C)nc2c1c(C)c(C)n2-c1c(C)cc(C)cc1C", "note": "[Antalarmin]", "values": [{"measurement": "ACTH secretion with Antalarmin treatment", "setting": "[1]; low glucose conditions (10 mg/dL)", "result": "reduced ACTH secretion"}, {"measurement": "ACTH secretion with Antalarmin treatment", "setting": "[1]; standard glucose conditions (100 mg/dL)", "result": "reduced ACTH secretion"}]}, {"compound": "CRH: CRH (Peptide Institute, #4136-s), a physiological secretion stimulating factor (SEEPPISLDLTFHLLREVLEMARAEQLAQQAHSNRKLMEII; ends and bridges not checked; UniProt P06850 154-194, looked up)", "values": [{"measurement": "ACTH secretion before and after CRH stimulation", "setting": "[2]; CD49c-negative cells (MACS, hESC sample)", "result": "did not respond to CRH"}, {"measurement": "ACTH secretion before and after CRH stimulation", "setting": "[2]; CD49c-positive cells (MACS, hESC sample)", "result": "increased ACTH secretion"}, {"measurement": "ACTH secretion per cell aggregate before and after CRH stimulation", "setting": "[3]", "result": "ACTH secretion increases"}, {"measurement": "ACTH secretion per cell aggregate before and after CRH stimulation", "setting": "[4]; CD49c-negative cells (FACS, hiPSC sample)", "result": "did not respond to CRH"}, {"measurement": "ACTH secretion per cell aggregate before and after CRH stimulation", "setting": "[4]; CD49c-positive cells (FACS, hiPSC sample)", "result": "increased ACTH secretion"}]}, {"compound": "C[C@]12CCC(=O)C=C1CC[C@@H]1[C@@H]2[C@@H](O)C[C@@]2(C)[C@H]1CC[C@]2(O)C(=O)CO", "note": "[cortisol, Hydrocortisone]", "values": [{"measurement": "ACTH secreted per cell aggregate before and after cortisol treatment", "setting": "[5]", "result": "ACTH secretion was reduced"}]}]}
